The text below walks through data of patent US20180148452A1, “TOLL-LIKE RECEPTOR-7 AGONIST” (MEDSHINE DISCOVERY INC., priority 2014, published 2018).

SMILES strings stand for the structures. pEC50: −log10 of the molar value. Counter-ions that a name gives are not always drawn.

The subject of one assay is Female Balb/c mice. As to the kind of experiment: Induction of IFN-α and TNF-α following intranasal dosing in the mouse. The assay is classed as in vivo. As to conditions: serum, 2 h after single i.n. dose; for IFN-α Conc. (1 mM): 1 mM (0.1 mpk); for IFN-α Conc. (3 mM) / TNF-α Conc. (3 mM): 3 mM (0.3 mpk); for IFN-α Conc. (10 mM) / TNF-α Conc. (10 mM): 10 mM (1 mpk); for IFN-α Conc. (30 mM) / TNF-α Conc. (30 mM): 30 mM (3 mpk). As for the experimental part:
Test 3: Assay for the Induction of Interferon-α (IFN-α) and Tumor Necrosis Factor-α (TNF-α) Following Intranasal Dosing in the Mouse
Female Balb/c mice (18-20 g) were anesthetized with isoflurane and then administered intranasally (20 μL in total between the nostrils) with compounds dissolved in saline with 0.2% Tween 80. After two hours, mice were euthanased by CO2 inhalation and blood samples were taken by cardiac puncher. Then blood samples were centrifuged and serum was collected. Serum samples were tested by ELISA with appropriate dilution according to the manufacturer's instructions. In this model, compounds could induce different IFN-α/TNF-α levels related to the dose of the compounds, while no IFN-α/TNF-α was detected in vehicle treated controls.

In another assay the target is T1, hTLR7 (Homo sapiens, UniProt Q9NYK1).
T1 construct: expressed in transfected cells; host or cells: HEK-Blue-hTLR7 cells (HEK293-derived SEAP reporter line)
T1 sequence (Q9NYK1 27-1049): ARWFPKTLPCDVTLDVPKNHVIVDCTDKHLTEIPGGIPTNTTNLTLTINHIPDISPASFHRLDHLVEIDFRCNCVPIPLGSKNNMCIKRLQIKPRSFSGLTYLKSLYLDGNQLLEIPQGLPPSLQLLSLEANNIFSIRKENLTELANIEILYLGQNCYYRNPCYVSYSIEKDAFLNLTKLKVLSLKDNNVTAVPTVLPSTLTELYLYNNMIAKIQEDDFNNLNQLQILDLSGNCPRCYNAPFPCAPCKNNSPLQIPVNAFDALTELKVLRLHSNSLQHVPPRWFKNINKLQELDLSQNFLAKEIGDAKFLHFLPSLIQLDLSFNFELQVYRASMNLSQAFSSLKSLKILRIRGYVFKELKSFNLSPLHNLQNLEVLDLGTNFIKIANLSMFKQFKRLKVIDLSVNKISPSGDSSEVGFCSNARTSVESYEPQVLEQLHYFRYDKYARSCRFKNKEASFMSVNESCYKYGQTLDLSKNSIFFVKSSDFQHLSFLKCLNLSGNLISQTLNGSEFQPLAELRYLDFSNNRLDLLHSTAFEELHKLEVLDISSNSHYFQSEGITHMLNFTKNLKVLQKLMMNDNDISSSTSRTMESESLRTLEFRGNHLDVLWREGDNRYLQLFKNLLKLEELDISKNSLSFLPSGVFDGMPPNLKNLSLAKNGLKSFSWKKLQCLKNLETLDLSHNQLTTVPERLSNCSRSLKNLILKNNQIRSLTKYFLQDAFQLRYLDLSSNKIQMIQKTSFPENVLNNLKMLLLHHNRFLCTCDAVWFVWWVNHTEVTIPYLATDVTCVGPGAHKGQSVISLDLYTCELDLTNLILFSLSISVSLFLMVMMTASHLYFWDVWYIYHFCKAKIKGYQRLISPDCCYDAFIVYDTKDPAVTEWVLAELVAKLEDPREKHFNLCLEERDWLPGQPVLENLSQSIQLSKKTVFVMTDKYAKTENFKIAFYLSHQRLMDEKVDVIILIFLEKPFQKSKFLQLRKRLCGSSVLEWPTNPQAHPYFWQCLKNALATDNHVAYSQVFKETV
As to the kind of experiment: TLR7 agonist screening protocol in vitro (HEK-Blue-hTLR7 reporter, QUANTI-Blue). The assay is classed as cell-based. Particulars: HEK-Blue-hTLR7 cells, 24 hours incubation, alkaline phosphatase OD650. As for the experimental part: Test 1: TLR7 Agonist Screening Protocol In Vitro
1. Preparation for 96-well plate: Compounds are 3 folds serial diluted with DMSO by POD, start from 10 mM, 10 concentrations (column 2 to 11, duplicated), 1 μL DMSO per well. Take 1 μL of 5 mM R848 as positive control (column 12) and 1 μL of DMSO as negative control (column 1).
2. Harvest cells and adjust cell suspension to the density of 250,000 cells/ml.
3. 200 μL cells are seeded into the cell culture plate containing compounds with the cell density of 50,000 cells/well, the final DMSO concentration is 0.5%.
4. Incubate the plates containing the cells and compounds at 37° C., 5% CO2 for 24 hours.
5. After 24 hours' incubation, fetch 20 μL supernatant from each well to transfer to another transparent 96-well cell culture plate. Add 180 μL QUANTI-Blue to each well of the cell culture plate containing 20 μL supernatant, and incubate at 37° C., 5% CO2 for 1 hour.
6. After 1 hour, determine alkaline phosphatase levels in 20 μL supernatant by using ELIASA reading at OD650.
7. Data analysis by Prism software, EC50 of each compound was obtained.

Regarding `CCCCOc1nc(N)c2[nH]c(C#N)c(CCCCCN3CCCCC3)c2n1` [Example 1, 4-Amino-2-butoxy-7-(5-(piperidin-1-yl)pentyl)-5H-pyrrolo[3,2-d]pyrimidine-6-carbonitrile formate], in the assay with Female Balb/c mice, the “IFN-α Conc. (1 mM)” value was 500 pg/mL, the “IFN-α Conc. (3 mM)” value is listed as 4500 pg/mL, the “TNF-α Conc. (3 mM)” value is listed as 100 pg/mL and the “IFN-α Conc. (10 mM)” value is 7500 pg/mL. For the same compound, in the assay with Female Balb/c mice, the “TNF-α Conc. (10 mM)” value is recorded as 300 pg/mL, the “IFN-α Conc. (30 mM)” value is 7000 pg/mL and the “TNF-α Conc. (30 mM)” value was 500 pg/mL. The compound also had a pEC50 at hTLR7 of 7.00 to 9.00.

For the compound `CCC[C@H](C)Oc1nc(N)c2[nH]c(C#N)c(CCCCCN3CCCCC3)c2n1` [Example 2, (S)-4-amino-(1-methylbutoxy)-7-(5-(piperidin-1-yl)pentyl)-5H-pyrrolo[3,2-d]pyrimidine-6-carbonitrile formate], at hTLR7, the pEC50 was 7.00 to 9.00.

On hTLR7, `CCCCOc1nc(N)c2[nH]c(C#N)c(CCCCN3CCCCC3)c2n1` [Example 3, 4-amino-2-butoxy-7-(4-(piperidin-1-yl)butyl)-5H-pyrrolo[3,2-d]pyrimidine-6-carbonitrile formate] showed a pEC50 of 7.00 to 9.00.

On to `CCCCOc1nc(N)c2[nH]c(C#N)c(CCCCCN3CCOCC3)c2n1` [Example 4, 4-amino-2-butoxy-7-(5-morpholin-1-yl)pentyl)-5H-pyrrolo[3,2-d]pyrimidine-6-carbonitrile formate], for which the pEC50 on hTLR7 was 7.00 to 9.00.

Turning to `CCCCOc1nc(N)c2[nH]c(C#N)c(CCCCCN3CC4(COC4)C3)c2n1` [Example 5, 7-(5-(2-oxa-6-azaspiro[3.3]heptan-6-yl)pentyl)-4-amino-2-butoxy-5H-pyrrolo[3,2-d]pyrimidine-6-carbonitrile formate], the pEC50 at hTLR7 was 7.00 to 9.00.

On hTLR7, `CCCCOc1nc(N)c2[nH]c(C#N)c(CCCCCN3CCN(C)CC3)c2n1` [Example 6, 4-amino-2-butoxy-7-(5-(4-methylpiperazin-1-yl)pentyl)-5H-pyrrolo[3,2-d]pyrimidine-6-carbonitrile formate] showed a pEC50 of 7.00 to 9.00.

In the case of `CCCCOc1nc(N)c2[nH]c(C#N)c(CCCCCN3CC4CC3CN4C)c2n1` (stereo not shown) [Example 7, 4-amino-2-butoxy-7-(5-(5-methyl-2,5-diazabicyclo[2.2.1]heptan-2-yl)pentyl)-5H-pyrrolo[3,2-d]pyrimidine-6-carbonitrile formate], the pEC50 at hTLR7 was 6.30 to 6.60.

Take `CCCCOc1nc(N)c2[nH]c(C#N)c(CCCCCN(CC)CC)c2n1` [Example 8, 4-amino-2-butoxy-7-(5-(diethylamino)pentyl)-5H-pyrrolo[3,2-d]pyrimidine-6-carbonitrile formate]: the negative logarithm of the EC50 (pEC50) at hTLR7 was 7.00 to 9.00.

For the compound `CCCCOc1nc(N)c2[nH]c(C#N)c(CCCCCN3CCC(F)(F)CC3)c2n1` [Example 9, 4-amino-2-butoxy-7-(5-(4,4′-difluoro-1-piperidinyl)pentyl)-5H-pyrrolo[3,2-d]pyrimidine-6-carbonitrile formate], at hTLR7, the pEC50 was 6.60 to 7.00.

For the compound `CCCCOc1nc(N)c2[nH]c(C#N)c(CCCCCN3CCN(C)CC3=O)c2n1` [Example 11, 4-amino-2-butoxy-7-(5-(4-methyl-2-oxopiperazin-1-yl)pentyl)-5H-pyrrolo[3,2-d]pyrimidine-6-carbonitrile formate], the pEC50 on hTLR7 is 6.60 to 7.00.

`CCCCOc1nc(N)c2[nH]c(C#N)c(CCCCCN3CCC[C@@H]3C(N)=O)c2n1` [Example 13]: the pEC50 at hTLR7 was 7.00 to 9.00.

For the compound `CCCCOc1nc(N)c2[nH]c(C#N)c(CCCCCN3CCCC3C(=O)N(C)C)c2n1` (stereo not shown) [Example 14, 4-amino-2-butoxy-7-(5-(2-(N,N′-dimethylformamido)-pyrrolidin-1-yl)pentyl)-5H-pyrrolo[3,2-d]pyrimidin-6-nitrile formate], the negative-log EC50 (pEC50) on hTLR7 was 7.00 to 9.00.

On hTLR7, `CCCCOc1nc(N)c2[nH]c(C#N)c(CCCCCN3CCCC3C(=O)N3CCN(C)CC3)c2n1` (stereo not shown) [Example 15, 4-amino-2-butoxy-7-(5-((2-(4-methylpiperazine-1-carbonyl)pyrrolidin-1-yl)pentyl)-5H-pyrrolo[3,2-d]pyrimidine-6-carbonitrile formate] gave a pEC50 of 6.60 to 7.00.

In turn, `CCCCOc1nc(N)c2[nH]c(C#N)c(CCCCCN3CCCC3C(=O)NCC3CC3)c2n1` (stereo not shown) [Example 16, formate] showed a pEC50 on hTLR7 of 6.60 to 7.00.

On to `CCCCOc1nc(N)c2[nH]c(C#N)c(CCCCCN3CCCCC3C(N)=O)c2n1` (stereo not shown) [Example 17, hydrochloride], for which the pEC50 at hTLR7 is 7.00 to 9.00.

The compound `CCCCOc1nc(N)c2[nH]c(C#N)c(CCCCCNC(C(N)=O)C(C)C)c2n1` (stereo not shown) [Example 18, 4-amino-2-butoxy-7-(5-((1-formamido-1′-isopropyl)amino)pentyl)-5H-pyrrolo[3,2-d]pyrimidine-6-carbonitrile hydrochloride] showed a pEC50 at hTLR7 of 7.00 to 9.00.

Turning to `CCCCOc1nc(N)c2[nH]c(C#N)c(CCCCCCN3CCCC3)c2n1` [Example 19, 4-amino-2-butoxy-7-(6-(tetrahydropyrrol-1-yl)hexyl)-5H-pyrrolo[3,2-d]pyrimidine-6-carbonitrile formate], the negative-log EC50 (pEC50) on hTLR7 is 7.00 to 9.00.

The compound `CCCCOc1nc(N)c2[nH]c(C#N)c(CCCCCN3CCCC3)c2n1` [Example 20, 4-amino-2-butoxy-7-(5-(tetrahydropyrrol-1-yl)pentyl)-5H-pyrrolo[3,2-d]pyrimidine-6-carbonitrile hydrochloride] gave a pEC50 at hTLR7 of 7.00 to 9.00.

For `CCCCOc1nc(N)c2[nH]c(C#N)c(CCCCCN3CC4CCC(C3)N4C)c2n1` [Example 21, 4-amino-2-butoxy-7-(5-(8-methyl-3,8-diazabicyclo[3.2.1]octan-3-yl)pentyl)-5H-pyrrolo[3,2-d]pyrimidine-6-carbonitrile formate], the pEC50 on hTLR7 was 6.60 to 7.00.

At hTLR7, `CCCCOc1nc(N)c2[nH]c(C#N)c(CCCCC3CCCCN3)c2n1` (stereo not shown) [Example 22, 4-amino-2-butoxy-7-(4-(piperidin-2-yl)butyl)-5H-pyrrolo[3,2-d]pyrimidine-6-carbonitrile formate] had a pEC50 of 6.60 to 7.00.

At hTLR7, `CCCCOc1nc(N)c2[nH]c(C#N)c(CCCCC3CCCCN3C(=O)NC)c2n1` (stereo not shown) [Example 23, 4-amino-2-butoxy-7-(4-(1-(1-N-methylcarbonyl)piperidin-2-yl)butyl)-5H-pyrrolo[3,2-d]pyrimidin-6-nitrile] gave a pEC50 of 6.60 to 7.00.

As for `CCCCOc1nc(N)c2[nH]c(C#N)c(CCCC3CCN(C)CC3)c2n1` [Example 24, 4-amino-2-butoxy-7-(3-(1-methylpiperidin-4-yl)propyl)-5H-pyrrolo[3,2-d]pyrimidine-6-carbonitrile formate], the pEC50 at hTLR7 was 7.00 to 9.00.

In the case of `CCC[C@H](C)Oc1nc(N)c2[nH]c(=O)n(CCCCCN3CCCCC3)c2n1.Cl` [GSK-2245035, reference compound], in the assay with Female Balb/c mice, the “IFN-α Conc. (1 mM)” value is listed as less than 100 pg/mL, the “IFN-α Conc. (3 mM)” value amounted to 1000 pg/mL, the “TNF-α Conc. (3 mM)” value is listed as less than 10 pg/mL and the “IFN-α Conc. (10 mM)” value is recorded as 3500 pg/mL. In addition, in the assay with Female Balb/c mice, the “TNF-α Conc. (10 mM)” value turned out to be 50 pg/mL, the “IFN-α Conc. (30 mM)” value was determined as 4500 pg/mL and the “TNF-α Conc. (30 mM)” value is recorded as 400 pg/mL. In addition, the pEC50 at hTLR7 is 7.00 to 9.00.
